Source: US20210323985A1, “SHIELDING AGENTS AND THEIR USE” (ENDOCYTE, INC., priority 2018, published 2021)

Columns and labels:
22RV1 tumors = assay: Biodistribution of 99mTc imaging conjugate 3a co-administered with a shielding agent in nude mice bearing 22RV1 tumors; format: in vivo; settings: 4 hours; 30 nmol/kg 99mTc imaging conjugate 3a; co-administration of 1 μmol/kg shielding agent; FIG. 8
Procedure: FIG. 8 is a chart showing the biodistribution at 4 hours in nude mice bearing 22RV1 tumors at 30 nmol/kg of ^99mTC imaging conjugate 3a with co-administration of 1 μmol/kg of a shielding agent. […] In the graph for each tissue ^99mTC imaging conjugate 3a+compound 1d (S-enantiomer) (left bar), ^99mTC imaging conjugate 3a+compound 1d (R-enantiomer) (right bar).
(§1) The shielding agents of the present disclosure were administered in combination with an imaging agent of the disclosure, and the biodistribution was analyzed.

LNCaP tumors = assay: Biodistribution of Ia-Lu with or without co-administered shielding agent in nude mice bearing LNCaP tumors; format: in vivo; settings: 4 hours; 30 nmol/kg Ia-Lu; co-administration of 1 μmol/kg shielding agent, vs Ia-Lu alone; FIG. 9
Procedure: FIG. 9 is a chart showing the biodistribution at 4 hours in nude mice bearing LNCaP tumors at 30 nmol/kg of Ia-Lu with or without co-administration of 1 μmol/kg of a shielding agent. […] In the graph for each tissue Ia-Lu alone (left bar), Ia-Lu+compound 1m (middle bar), Ia-Lu+compound 1d (S-enantiomer) (right bar).
as §1

| Compound | 99mTc imaging conjugate 3a tumor to kidney ratio (22RV1 tumors) | activity of shielding agent (comparison of enantiomers) (22RV1 tumors) | Ia-Lu tumor to kidney ratio (LNCaP tumors) |
| --- | --- | --- | --- |
| CCCCCCCCCCCCOC(=O)CC[C@@H](CP(=O)(O)O)C(=O)O [1d (S-enantiomer)] | enhanced | more active than the R-enantiomer | enhanced |
| CCCCOC(=O)CC[C@H](NC(=O)N[C@@H](CCC(=O)O)C(=O)O)C(=O)O [Compound 1m] |  |  | enhanced |
